Activity calls are given as the source filed them. The rule behind the calls is not given here.
Legend:
[1] = system: HT-29; assay: Anti-necroptosis activity against human HT-29 cells assessed as inhibition of TSZ-induced necroptosis preincubated for 30 mins followed by compound addition and measured for 16 hrs by Cell-titer-glo assay; format: functional, cell-based
[2] = system: HT-29; assay: Cytotoxicity against human HT-29 cells assessed as reduction in cell viability measured for 16 to 24 hrs by Cell-titer-glo assay; format: functional; details: time 16-24 hrs
[3] = target: T1, Receptor-interacting serine/threonine-protein kinase 1 (Homo sapiens, UniProt Q13546); assay: Binding affinity to recombinant RIPK1 (unknown origin) assessed as dissociation constant by kinomescan assay
T1 sequence (Q13546 whole entry): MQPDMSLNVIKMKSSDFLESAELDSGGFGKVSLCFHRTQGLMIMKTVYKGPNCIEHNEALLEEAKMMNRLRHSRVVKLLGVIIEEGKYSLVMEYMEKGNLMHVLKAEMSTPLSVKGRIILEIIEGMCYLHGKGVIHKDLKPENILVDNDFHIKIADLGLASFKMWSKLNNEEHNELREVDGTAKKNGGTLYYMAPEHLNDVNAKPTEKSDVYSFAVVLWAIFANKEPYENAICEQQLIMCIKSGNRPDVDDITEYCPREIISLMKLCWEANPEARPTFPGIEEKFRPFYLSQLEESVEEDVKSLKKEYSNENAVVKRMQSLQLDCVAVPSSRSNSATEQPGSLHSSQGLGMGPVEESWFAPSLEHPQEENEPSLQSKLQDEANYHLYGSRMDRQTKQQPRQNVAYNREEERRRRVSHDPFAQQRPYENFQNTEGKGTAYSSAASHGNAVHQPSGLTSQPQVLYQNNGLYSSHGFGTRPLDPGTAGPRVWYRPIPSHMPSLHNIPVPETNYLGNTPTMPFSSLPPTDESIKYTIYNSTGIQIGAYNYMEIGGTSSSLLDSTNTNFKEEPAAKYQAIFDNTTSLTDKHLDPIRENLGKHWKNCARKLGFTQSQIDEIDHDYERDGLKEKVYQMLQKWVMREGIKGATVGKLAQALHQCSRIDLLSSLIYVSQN

[4] = system: HT-29; assay: Anti-necroptosis activity against human HT-29 cells assessed as inhibition of TSZ-induced necroptosis pretreated with compound followed by TSZ induction and measured for 12 hrs by Cell-titer-glo assay; format: functional, cell-based; details: dose 0.63-100 nM
[5] = system: U-937; assay: Anti-necroptic activity against human U-937 cells assessed as inhibition of TSZ-induced necroptosis at 100 nM pretreated with compound followed by TSZ induction and measured for 12 hrs by Cell-titer-glo assay; format: functional, cell-based
[6] = system: HT-29; assay: Anti-necroptic activity in human HT-29 cells assessed as inhibition of TNFalpha and cycloheximide-induced necroptosis pretreated with compound followed by TNFalpha and cycloheximide-induction and measured after 24 hrs by Cell-titer-glo assay; format: functional, cell-based
[7] = system: L929; assay: Anti-necroptic activity against mouse L929 cells assessed as inhibition of TNFalpha/z-VAD-FMK-induced necroptosis pretreated with compound followed by TNFalpha/z-VAD-FMK-induction and measured after 24 hrs by Cell-titer-glo assay; format: functional, cell-based; details: dose 0.02-10 µM
[8] = target: T2, Receptor-interacting serine/threonine-protein kinase 1 (Homo sapiens) (UniProt Q13546); assay: Inhibition of RIPK1 phosphorylation in TSZ (TNFalpha, Smac mimetic and z-VAD-FMK) induced-human HT-29 cells assessed as decrease in phosphorylated RIPK1 level at 12 nM pretreated with compound followed by TSZ-induction and measured after 6 hrs by immunoblotting analysis; format: cell-based
T2 sequence (whole entry): T1 sequence (Q13546 whole entry)

[9] = target: Receptor-interacting serine/threonine-protein kinase 3 (Homo sapiens) (UniProt Q9Y572); assay: Inhibition of RIPK3 phosphorylation […] (TNFalpha, Smac mimetic and z-VAD-FMK) induced-human HT-29 cells assessed as decrease in phosphorylated RIPK3 level at 12 nM pretreated with compound followed by TSZ-induction and measured after 6 hrs by immunoblotting analysis; format: cell-based
[10] = target: T3, Mixed lineage kinase domain-like protein (Homo sapiens) (UniProt Q8NB16); assay: Inhibition of MLKL phosphorylation […] (TNFalpha, Smac mimetic and z-VAD-FMK) induced-human HT-29 cells assessed as decrease in phosphorylated MLKL level at 12 nM pretreated with compound followed by TSZ-induction and measured after 6 hrs by immunoblotting analysis; format: cell-based
T3 sequence (whole entry): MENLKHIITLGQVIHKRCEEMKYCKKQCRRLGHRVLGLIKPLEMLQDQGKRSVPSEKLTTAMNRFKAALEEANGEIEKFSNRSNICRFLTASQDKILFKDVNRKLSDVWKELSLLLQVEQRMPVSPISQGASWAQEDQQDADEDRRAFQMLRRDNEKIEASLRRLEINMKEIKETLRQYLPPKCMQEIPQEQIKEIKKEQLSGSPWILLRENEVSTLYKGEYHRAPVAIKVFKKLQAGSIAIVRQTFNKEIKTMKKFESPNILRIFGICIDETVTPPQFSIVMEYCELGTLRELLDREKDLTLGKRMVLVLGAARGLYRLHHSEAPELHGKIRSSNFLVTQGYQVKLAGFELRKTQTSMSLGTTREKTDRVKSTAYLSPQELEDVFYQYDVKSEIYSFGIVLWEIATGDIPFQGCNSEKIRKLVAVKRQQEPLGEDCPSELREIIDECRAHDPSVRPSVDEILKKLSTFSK

[11] = target: T2, Receptor-interacting serine/threonine-protein kinase 1 (Homo sapiens); assay: Inhibition of RIPK1 phosphorylation in TSZ (TNFalpha, Smac mimetic and z-VAD-FMK) induced-human HT-29 cells assessed as decrease in phosphorylated RIPK1 level pretreated with compound followed by TSZ-induction and measured after 6 hrs by immunoblotting analysis; format: cell-based; details: dose 1.5-12 nM
[12] = target: Receptor-interacting serine/threonine-protein kinase 3 (Homo sapiens) (UniProt Q9Y572); assay: Inhibition of RIPK3 phosphorylation in TSZ (TNFalpha, Smac mimetic and z-VAD-FMK) induced-human HT-29 cells assessed as decrease in phosphorylated RIPK3 level pretreated with compound followed by TSZ-induction and measured after 6 hrs by immunoblotting analysis; format: cell-based; details: dose 1.5-12 nM
[13] = target: T3, Mixed lineage kinase domain-like protein (Homo sapiens); assay: Inhibition of MLKL phosphorylation in TSZ (TNFalpha, Smac mimetic and z-VAD-FMK) induced-human HT-29 cells assessed as decrease in phosphorylated MLKL level pretreated with compound followed by TSZ-induction and measured after 6 hrs by immunoblotting analysis; format: cell-based; details: dose 1.5-12 nM
[14] = target: T2, Receptor-interacting serine/threonine-protein kinase 1 (Homo sapiens); assay: Inhibition of RIPK1 phosphorylation in TSZ (TNFalpha, Smac mimetic and z-VAD-FMK) induced-human HT-29 cells assessed as decrease in phosphorylated RIPK1 level at 12 nM pretreated with compound followed by TSZ-induction by immunoblotting analysis; format: cell-based; details: time 6.0 hrs, TDE = time-dependent effect
[15] = target: Receptor-interacting serine/threonine-protein kinase 3 (Homo sapiens) (UniProt Q9Y572); assay: Inhibition of RIPK3 phosphorylation in TSZ (TNFalpha, Smac mimetic and z-VAD-FMK) induced -human HT-29 cells assessed as decrease in phosphorylated RIPK3 level at 12 nM pretreated with compound followed by TSZ-induction by immunoblotting analysis; format: cell-based; details: time 2-6 hrs, TDE = time-dependent effect
[16] = target: T3, Mixed lineage kinase domain-like protein (Homo sapiens); assay: Inhibition of MLKL phosphorylation in TSZ (TNFalpha, Smac mimetic and z-VAD-FMK) induced-human HT-29 cells assessed as decrease in phosphorylated MLKL level at 12 nM pretreated with compound followed by TSZ-induction by immunoblotting analysis; format: cell-based; details: time 2-6 hrs, TDE = time-dependent effect
[17] = system: HT-29; assay: Inhibition of RIPK1-RIPK3-MLKL pathway in TSZ induced human HT-29 cells assessed as reduction in necrosome formation at 12 nM measured after 6 hrs by Western blot analysis; format: cell-based
[18] = system: Mus musculus; assay: Anti-necroptosis activity against TNFalpha-induced C57BL/6 mouse systemic inflammatory response syndrome model assessed as protection of body temperature at 5 to 20 mg/kg, IG pretreated with compound followed by TNFalpha-stimulation and measured after 2 to 3 hrs by thermometer analysis; format: functional, organism-based; details: dose 5-20 mg/kg, time 2-3 hrs
[19] = system: Mus musculus; assay: Anti-necroptic activity against mTNFalpha induced C57BL/6 mouse systemic inflammatory response syndrome model assessed as increase in survival rate 5 mg/kg, IG pretreated with compound for 1 hr followed by mTNFalpha injection and measured after 15 mins; format: functional; details: time 75 min, 1.25 h
[20] = system: Mus musculus; assay: Anti-necroptic activity against mTNFalpha induced C57BL/6 mouse systemic inflammatory response syndrome model assessed as increase in survival rate 10 mg/kg, IG pretreated with compound for 1 hr followed by mTNFalpha injection and measured after 15 mins; format: functional; details: time 75 min, 1.25 h
[21] = system: Mus musculus; assay: Anti-necroptic activity against mTNFalpha induced C57BL/6 mouse systemic inflammatory response syndrome model assessed as increase in survival rate 20 mg/kg, IG pretreated with compound for 1 hr followed by mTNFalpha injection and measured after 15 mins; format: functional; details: time 75 min, 1.25 h
[22] = system: Mus musculus; assay: Anti-necroptic activity against TNFalpha-induced C57BL/6 mouse systemic inflammatory response syndrome model assessed as protection of body temperature at 20 mg/kg, IG pretreated with compound followed by TNFalpha-stimulation and measured after 2 to 3 hrs by thermometer analysis; format: functional, organism-based; details: time 2-3 hrs
[23] = system: Mus musculus; assay: Anti-necroptic activity against TNFalpha-induced C57BL/6 mouse serum assessed as reduction in IL-6 level at 20 mg/kg, IG pretreated with compound followed by TNFalpha-stimulation for 4 hrs; format: functional, organism-based
[24] = system: Mus musculus; assay: Anti-necroptic activity against TNFalpha-induced C57BL/6 mouse serum assessed as reduction in IL-1beta level at 20 mg/kg, IG pretreated with compound followed by TNFalpha-stimulation for 4 hrs; format: functional, organism-based
[25] = system: Mus musculus; assay: Anti-necroptic activity against mTNFalpha induced C57BL/6 mouse systemic inflammatory response syndrome model assessed as increase in survival rate 20 mg/kg, IG pretreated with compound for 1 hr followed by mTNFalpha injection and measured after 60 mins; format: functional; details: time 2 hrs
[26] = system: Mus musculus; assay: Anti-necroptic activity against mTNFalpha induced C57BL/6 mouse systemic inflammatory response syndrome model assessed as increase in survival rate 5 mg/kg, IG pretreated with compound for 1 hr followed by mTNFalpha injection and measured after 60 mins; format: functional; details: time 2 hrs
[27] = system: HT-29; assay: Cytotoxicity against human HT-29 cells assessed as reduction in cell viability at 100 uM measured for 16 to 24 hrs by Cell-titer-glo assay; format: functional, cell-based; details: time 16-24 hrs
[28] = system: Mus musculus; assay: Anti-necroptic activity against mTNFalpha induced C57BL/6 mouse systemic inflammatory response syndrome model assessed as increase in survival rate 15 mg/kg, IG pretreated with compound for 1 hr followed by mTNFalpha injection and measured after 15 mins; format: functional; details: time 75 min, 1.25 h
[29] = system: Mus musculus; assay: Anti-necroptic activity against TNFalpha-induced C57BL/6 mouse serum assessed as reduction in IL-6 level at 5 mg/kg, IG pretreated with compound followed by TNFalpha-stimulation for 4 hrs; format: functional, organism-based
[30] = system: Mus musculus; assay: Anti-necroptic activity against TNFalpha-induced C57BL/6 mouse serum assessed as reduction in IL-1beta level at 5 mg/kg, IG pretreated with compound followed by TNFalpha-stimulation for 4 hrs; format: functional, organism-based

Receptor-interacting serine/threonine-protein kinase 3 (Homo sapiens), sequence (Q9Y572 whole entry, looked up, the tested form may be a part): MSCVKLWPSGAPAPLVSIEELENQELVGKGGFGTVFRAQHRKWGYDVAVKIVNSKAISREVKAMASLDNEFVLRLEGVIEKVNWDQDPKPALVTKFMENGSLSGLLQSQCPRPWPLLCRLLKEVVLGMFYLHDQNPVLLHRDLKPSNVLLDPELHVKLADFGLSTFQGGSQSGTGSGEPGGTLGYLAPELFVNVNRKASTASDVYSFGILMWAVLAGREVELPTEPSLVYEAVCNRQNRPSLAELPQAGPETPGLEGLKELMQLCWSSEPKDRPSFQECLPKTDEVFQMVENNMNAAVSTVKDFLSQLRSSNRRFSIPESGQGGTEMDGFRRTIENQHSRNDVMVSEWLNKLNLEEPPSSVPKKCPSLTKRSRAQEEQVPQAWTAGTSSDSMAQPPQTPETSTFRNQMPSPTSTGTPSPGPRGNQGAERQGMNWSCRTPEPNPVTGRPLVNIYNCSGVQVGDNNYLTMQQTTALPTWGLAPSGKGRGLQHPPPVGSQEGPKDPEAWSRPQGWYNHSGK

Structure (SMILES)	EC50 [1] [nM]	CC50 [2] [nM]	Kd [3] [nM]	Activity [5]	Activity [6]	Activity [7]	inhibition [8]	inhibition [9]	inhibition [10]	inhibition [11]	inhibition [12]	inhibition [13]	inhibition [14]	inhibition [15]	inhibition [16]	inhibition [17]	Activity [18]	Activity [19] [%]	Activity [20] [%]	Activity [22]	other results
C#Cc1ccc2c(c1)N(C)C(=S)[C@@H](NC(=O)c1n[nH]c(Cc3ccccc3)n1)CO2	3.7	> 100000	9.7	Active	inactive	Dose-Dependent Effect	Active	Active	Active	Dose-Dependent Effect	Dose-Dependent Effect	Dose-Dependent Effect	Tde	Tde	Tde	Active	Active	66	83	Active	Activity [4]: Dose-Dependent Effect; Activity [21]: 100%; Activity [23]: Active; Activity [24]: Active
CN1C(=O)[C@@H](NC(=O)c2n[nH]c(Cc3ccccc3)n2)COc2ccccc21 [GSK2982772]	–	> 100000	–	–	–	–	–	–	–	–	–	–	–	–	–	–	Active	–	–	–	Activity [25]: 92%; Activity [26]: 50%
CN1C(=S)[C@@H](NC(=O)c2n[nH]c(Cc3ccccc3)n2)COc2ccc(C#Cc3cccc(C#N)c3)cc21	3.2	> 100000	70	Active	inactive	Dose-Dependent Effect	Active	Active	Active	Dose-Dependent Effect	Dose-Dependent Effect	Dose-Dependent Effect	Tde	Tde	Tde	Active	–	58	83	Active	Activity [27]: inactive; Activity [28]: 100%; Activity [29]: Active; Activity [30]: Active
